Here are results for 15 molecules from US12091425B2 (AMGEN INC., priority 2016, dated 2024).

In assay [1] the test system is OPM-2 human multiple myeloma cell line. Put plainly: Cell Viability Assay (OPM-2 10 FBS). Format: cell-based. The settings on record: OPM-2 cells, 16 h, CellTiter-Glo. An outline of the steps: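 IC50 from 4-parameter logistic fit of CellTiter-Glo luminescence. 3000 cells/well, 10% FBS medium, serial compound dilutions, 16 h, 37 °C/5% CO2; read 25 min post-reagent.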

In assay [2] the target is T1, Mcl-1/Bim interaction, recombinant human Mcl-1 (171-327) (Homo sapiens, UniProt Q07820).
T1 construct: made in house
T1 sequence (Q07820 171-327): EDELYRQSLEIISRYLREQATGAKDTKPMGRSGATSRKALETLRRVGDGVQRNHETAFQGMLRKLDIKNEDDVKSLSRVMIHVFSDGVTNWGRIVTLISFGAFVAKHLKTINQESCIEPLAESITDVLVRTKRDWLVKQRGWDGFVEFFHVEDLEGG
Put plainly: Cell free Mcl-1: Bim Affinity Assay (Mcl-1 HTRF). Format: binding. The procedure, abridged:
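Displacement of biotinylated Bim 51-76 peptide is followed by TR-FRET. Incubation runs overnight. Duplicate points are fitted with a four-parameter sigmoid to yield IC50.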
A general note: Time-resolved FRET reads energy transfer from a long-lived donor to a nearby acceptor.

Where [3] appears, read: TR-FRET, 0.1 nM Mcl-1 (171-327), 0.05 nM biotin-Bim (51-76).
Setting [4] is: cell free Mcl-1:Bim TR-FRET, recombinant human Mcl-1 (171-327).

pIC50: −log10 of the molar value.

What is called pIC50 is the IC50 on a negative log10 scale, so that one unit is a factor of ten. `CCN1CC/C=C/[C@H](OCC(=O)OC)[C@@H]2CC[C@H]2CN2C[C@@]3(CCCc4cc(Cl)ccc43)COc3ccc(cc32)C(=O)NS1(=O)=O` [Example 43, methyl(((1S,3′R,6′R,7′S,8′E)-6-chloro-12′-ethyl-13′,13′-dioxido-15′-oxo-3,4-dihydro-2H-spiro[naphthalene-1,22′-[20]oxa[13]thia[1,12,14]triazatetracyclo[14.7.2.0^3,6.0^19,24]pentacosa[8,16,18,24]tetraen]-7′-yl)oxy)acetate]: the pIC50 in assay [1] (Homo sapiens, OPM-2, 16 h) was 6.27; in assay [2] (setting [3]), 9.00.
In the case of `COC[C@@H](O)C[C@@H]1CC/C=C/[C@H](OC)[C@@H]2CC[C@H]2CN2C[C@@]3(CCCc4cc(Cl)ccc43)COc3ccc(cc32)C(=O)NS1(=O)=O` (single isomer, unassigned) [Example 659], the pIC50 in assay [1] was 4.96; in assay [2] (setting [4]) it was 8.47.
For `CO[C@H]1C/C=C/[C@H](OCCN2CCOCC2)[C@@H]2CC[C@H]2CN2C[C@@]3(CCCc4cc(Cl)ccc43)COc3ccc(cc32)C(=O)NS(=O)(=O)[C@@H]1C[C@@H]1CCCO1` (single isomer, unassigned) [Example 645] the same measures were 6.90 and 9.23.
Turning to `CC[C@@H]1CC/C=C/[C@H](OC)[C@@H]2CC[C@H]2CN2C[C@@]3(CCCc4cc(Cl)ccc43)COc3cc(Cl)c(cc32)C(=O)NS1(=O)=O` [Example 688, (1S,3′R,6′R,7′S,8′E,12′R)-6,17′-dichloro-12′-ethyl-7′-methoxy-3,4-dihydro-2H,15′H-spiro[naphthalene-1,22′-[20]oxa[13]thia[1,14]diazatetracyclo[14.7.2.0^3,6.0^19,24]pentacosa [8,16,18,24]tetraen]-15′-one 13′,13′-dioxide], the pIC50 was 4.87 in assay [1] (Homo sapiens, OPM-2, 16 h) and 7.85 in assay [2] (setting [4]).
Turning to `O=C1NS(=O)(=O)NCC/C=C/[C@H](O)[C@@H]2CC[C@H]2CN2C[C@@]3(CCCc4cc(Cl)ccc43)COc3ccc1cc32` [Example 19, (1S,3′R,6′R,7′S,8′E)-6-chloro-7′-hydroxy-3,4-dihydro-2H,15′H-spiro[naphthalene-1,22′-[20]oxa[13]thia[1,12,14]triazatetracyclo[14.7.2.0^3,6.0^19,24]pentacosa[8,16,18,24]tetraen]-15′-one 13,13′ dioxide], the pIC50 is 5.91 in assay [1] (Homo sapiens, OPM-2, 16 h) and 9.31 in assay [2] (setting [3]).
For `O=C1NS(=O)(=O)N2CCC[C@@H]2C/C=C/[C@H](O)[C@@H]2CC[C@H]2CN2C[C@@]3(CCCc4cc(Cl)ccc43)COc3ccc1cc32` [Example 347, (1S,3′R,6′R,7′S,8′E,11R)-6-chloro-7′-hydroxy-3,4-dihydro-2H,18′H-spiro[naphthalene-1,25′-[23]oxa[16]thia[1,15,17]triazapentacyclo[17.7.2.0^3,6.0^11,15.0^22,27]octacosa[8,19,21,27]tetraen]-18′-one 16′,16′-dioxide], the pIC50 in assay [1] is 5.26; in assay [2] (setting [3]) it was 8.14.
On to `C[C@@H]1[C@@H](C)C/C=C/[C@H](OCC(=O)N2CC[C@@H](O)C2)[C@@H]2CC[C@H]2CN2C[C@@]3(CCCc4cc(Cl)ccc43)COc3ccc(cc32)C(=O)NS1(=O)=O` [Example 311, (1S,3′R,6′R,7′S,8′E,11′S,12′R)-6-chloro-7′-(2-((3R)-3-hydroxy-1-pyrrolidinyl)-2-oxoethoxy)-11′,12′-dimethyl-3,4-dihydro-2H,15′H-spiro[naphthalene-1,22′-[20]oxa[13]thia[1,14]diazatetracyclo[14.7.2.0^3,6.0^19,24]pentacosa [8,16,18,24]tetraen]-15′-one 13′,13′-dioxide], for which the pIC50 in assay [1] (Homo sapiens, OPM-2, 16 h) was 5.85; in assay [2] (setting [3]) it was 9.86.
The corresponding values for `CN(C)C(=O)CCO[C@@H]1/C=C/CCCS(=O)(=O)NC(=O)c2ccc3c(c2)N(C[C@@H]2CC[C@H]21)C[C@@]1(CCCc2cc(Cl)ccc21)CO3` [Example 211, 3-(((1S,3′R,6′R,7′R,8′E)-6-chloro-13′,13′-dioxido-15′-oxo-3,4-dihydro-2H-spiro[naphthalene-1,22′-[20]oxa[13]thia[1,14]diazatetracyclo[14.7.2.0^3,6.0^19,24]pentacosa [8,16,18,24]tetraen]-7′-yl)oxy)-N,N-dimethylpropanamide] are 5.63 and 8.95.
Take `O=C1NS(=O)(=O)[C@@H]2CCC[C@H](/C=C/[C@H](O)[C@@H]3CC[C@H]3CN3C[C@@]4(CCCc5cc(Cl)ccc54)COc4ccc1cc43)C2` (single isomer, unassigned) [Example 109]: the pIC50 was 4.91 in assay [1] and 8.87 in assay [2] (setting [3]).
Take `Cn1cnc(CO[C@H]2/C=C/C[C@H]3CCC[C@@H]3S(=O)(=O)NC(=O)c3ccc4c(c3)N(C[C@@H]3CC[C@H]32)C[C@@]2(CCCc3cc(Cl)ccc32)CO4)n1` (single isomer, unassigned) [Example 329]: the values for the pIC50 in assay [1] and in assay [2] (setting [3]) were 5.46 and 8.59, respectively.
Take `COC1CC=CC(O)C2CCC2CN2CC3(CCCc4cc(Cl)ccc43)COc3ccc(cc32)C(=O)NS(=O)(=O)C1CC1CCCO1` (single isomer, unassigned) [Example 638]: the pIC50 in assay [1] (Homo sapiens, OPM-2, 16 h) was 6.88; in assay [2] (setting [4]) it was 9.61.
`O=C1NS(=O)(=O)[C@@H]2CCC[C@@H]2C/C=C/[C@H](O)[C@@H]2CC[C@H]2CN2C[C@@]3(CCCc4cc(Cl)ccc43)COc3ccc1cc32` (single isomer, unassigned) [Example 323]: the pIC50 in assay [1] (Homo sapiens, OPM-2, 16 h) is 5.53; in assay [2] (setting [3]), 8.69.
On to `COC[C@@H]1C[C@H](C)/C=C/[C@H](O)[C@@H]2CC[C@H]2CN2C[C@@]3(CCCc4cc(Cl)ccc43)COc3ccc(cc32)C(=O)NS1(=O)=O` (single isomer, unassigned) [Example 472], for which the values for the pIC50 in assay [1] and in assay [2] (setting [4]) were 6.69 and 9.57, respectively.
Take `CN(C)C(=O)CN1CC/C=C/[C@H](O)[C@@H]2CC[C@H]2CN2C[C@@]3(CCCc4cc(Cl)ccc43)COc3ccc(cc32)C(=O)NS1(=O)=O` [Example 24, 2-((1S,3′R,6′R,7′S,8′E)-6-chloro-7′-hydroxy-13′,13′-dioxido-15′-oxo-3,4-dihydro-2H,12′H-spiro[naphthalene-1,22′-[20]oxa[13]thia[1,12,14]triazatetracyclo[14.7.2.0^3,6.0^19,24]pentacosa[8,16,18,24]tetraen]-12′-yl)-N,N-dimethylacetamide]: the pIC50 is 6.17 in assay [1] (Homo sapiens, OPM-2, 16 h) and 9.33 in assay [2] (setting [3]).
Regarding `C[C@@H]1[C@@H](C)C/C=C/[C@H](OCCN2C[C@@H]3C[C@H]2CO3)[C@@H]2CC[C@H]2CN2C[C@@]3(CCCc4cc(Cl)ccc43)COc3ccc(cc32)C(=O)NS1(=O)=O` [Example 520, (1S,3′R,6′R,7′S,8′E,11′S,12′R)-6-chloro-11,12′-dimethyl-7′-(2-((1S,4S)-2-oxa-5-azabicyclo[2.2.1]hept-5-yl)ethoxy)-3,4-dihydro-2H,15′H-spiro[naphthalene-1,22′-[20]oxa[13]thia[1,14]diazatetracyclo[14.7.2.0^3,6.0^19,24]pentacosa [8,16,18,24]tetraen]-15′-one 13′,13′-dioxide 2,2,2-trifluoroacetic Acid], the pIC50 in assay [1] (Homo sapiens, OPM-2, 16 h) was 6.85; in assay [2] (setting [4]) it was 9.55.
